The values below are quoted from earlier work in PMC9160825, “Structural and Functional Characterization of a Novel Scorpion Toxin that Inhibits NaV1.8 via Interactions With the DI Voltage Sensor and DII Pore Module” (Frontiers in Pharmacology, 2022).

One data set deals with house mouse NaV1.8. The conditions noted are these: ref Zhang and Bean, 2021.
Data set [1] deals with DRG nociceptive sensory neurons. An excerpt: In addition to modifying activation and fast inactivation gating, NaTx36 modifies slow inactivation gating in OtNaV1.8 by substantially shifting the voltage dependence to hyperpolarized membrane potentials (Figure 5B). Slow inactivation differs from fast inactivation in voltage- and time-dependent properties. While fast inactivation inhibits NaV excitability within milliseconds of action potential firing, slow inactivation develops in response to prolonged membrane depolarization (tens of seconds) or a series of action potentials, inhibiting NaV excitability over longer timescales (seconds to ...

The test system of data set [2] is sodium channel DI voltage sensor. More on the design: method as in Xiao et al., 2014. The following applies: ref Xiao et al., 2014.

On to `C=C(C)[C@@H]1CCC(C)=C[C@H]1c1c(O)cc(CCCCC)cc1O` [CBD, cannabidiol], for which the “inhibition of house mouse NaV1.8” value in the data set with house mouse NaV1.8 is reported as “inhibited house mouse NaV1.8 in a state-dependent manner”. Besides, the “repetitive action potential firing and DRG neuronal excitability” value in data set [1] (ref Zhang and Bean, 2021) was “reduces repetitive action potential firing and DRG neuronal excitability”.
For `COc1cc(CNC(=O)CCCC/C=C/C(C)C)ccc1O` [capsaicin], the “NaV1.8 TTX-R Na+ currents and action potential firing” value in data set [1] (sustained excitation of DRG membranes, ref Blair and Bean, 2003) was “caused a decrease in NaV1.8 TTX-R Na^+ currents and action potential firing”.
For the compound ProTx-II: spider toxin, the “effect on gating pore currents via DI voltage sensor” value in data set [2] is recorded as “modify the voltage dependence of gating pore currents”.
